In US20230149409A1, “TREATMENT OF HUMAN PAPILLOMAVIRUS-ASSOCIATED CANCERS BY PD-L1 INHIBITORS” (priority 2021, published 2023):

Key:
[1] = tested on: PD-L1 (U2OS/PD-L1 cells, Jurkat-PD-1-SHP cells); experiment: Src Homology Region 2 Domain-containing Phosphatase (SHP) assay; type: cell-based; details: Homo sapiens; U2OS/PD-L1 + Jurkat-PD-1-SHP cells, 2 hours
Protocol: Example 1B. Src Homology Region 2 Domain-containing Phosphatase (SHP) Assay
U2OS/PD-L1 cells (DiscoveRx Corporation) were maintained in McCoy’s 5A medium with addition of 10% FBS, 0.25 µg/mL Puromycin. After removing the culture media, the cell medium was replaced with assay medium (RPMI1640 medium with 1% FBS). The U2OS/PD-L1 cells were then added in 384-well black clear bottom assay plate (CELLCOAT® Tissue Culture Plates, Greiner Bio-One) at 5000 cells per well in 20 uL assay medium. Test compounds were prepared by serial dilution in DMSO and 125 nL compound were first transferred to the 384 REMP plate well (Thermofisher) by ECHO liquid handler (Labcyte) followed with addition of 27.5 uL assay medium. 5 µL/well compounds in the assay medium were transferred to the cell plate with 0.05% DMSO in the final assay at 0.25 µM. Jurkat-PD-1-SHP cells (DiscoveRx Corporation) were cultured in RPMI1640 medium supplemented with 10% FBS, 250 µg/mL Hygromycin B, 500 µg/mL G418. After the replacement of culture media with assay medium, 5,000 Jurkat-PD-1-SHP cells in 20 µL were dispensed into each well. The assay plate was incubated at 37° C., 5% CO2 for 2 hours before 2.5 uL PathHunter reagent 1 (DiscoveRx Corporation) were added to each well. The assay plate was shaken for 1 min at 350 rpm in the dark followed with addition of 10 uL PathHunter reagent 2 (DiscoveRx Corporation). Chemiluminescent signal was recorded with TopCount reader (Perkin Elmer) after incubation at room temperature for 1 hour. Wells with DMSO were served as the positive controls and wells containing no cells were used as negative controls. IC50 determination was performed by fitting the curve of percentage of control activity versus the log of the compound concentration using the GraphPad Prism 6.0 software.

[2] = tested on: PD-L1 (PD-L1 aAPC/CHO-K1 cells, Jurkat-PD-1-NFAT effector cells); experiment: Nuclear Factor of Activated T-cells (NFAT) assay; type: cell-based; details: Cricetulus griseus; PD-L1 aAPC/CHO-K1 + Jurkat-PD-1-NFAT cells, 24 hours
Protocol: Nuclear Factor of Activated T-cells (NFAT) Assay
PD-L1 aAPC/CHO-K1cells (Promega) were maintained in F-12 medium with addition of 10% FBS, 200 µg/mL Hygromycin B, 250 µg/mL Geneticin (G418). […] The culture media of PD-L1 aAPC/CHO-K1 cells were first replaced with assay medium (RPMI1640 medium with 1% FBS). The PD-L1 aAPC/CHO-K1cells were then added in a white 384-well white clear bottom assay plate (CELLCOAT® Tissue Culture Plates, Greiner Bio-One) at 8000 per well in 10 uL assay medium. […] 5 uL compounds in the assay medium were transferred to the cells with 0.4% DMSO in the final assay at 2 µM. After removing the culture media, 10,000 Jurkat-PD-1-NFAT effector cells in 5 µL assay medium was dispensed into each well. The assay plate was incubated at 37° C., 5% CO2 for 24 hours. […] After 8 minutes incubation at room temperature, luminescence was read at with Pherastar microplate reader (BMG Labtech). The fold of induction (FOI) was calculated based on the ratio of luminescence normalized to the DMSO wells within each assay plate. The maximum percentage of induction was reported based on the ratio between the highest FOI of each compound and the maximum FOI of control compound within each assay plate. Wells with DMSO were served as the negative controls and wells containing control compound with the highest FOI were used as positive controls. EC50 determination was performed by fitting the curve of percent control activity versus the log of the compound concentration using the GraphPad Prism 6.0 software.

[3] = biological target: T1, PD-L1 on CD14+ cells in human whole blood (Homo sapiens, UniProt Q9NZQ7); experiment: PD-L1 whole blood internalization assay; type: cell-based; details: 1 ng/mL interferon γ, CD14+ gated, 24 hour
T1 construct: Cells were gated on CD14+ (BD Biosciences) and PD-L1 expression determined by mean fluorescence intensity; host or cells: CD14+ cells in normal human whole blood, stimulated with human interferon gamma
T1 sequence (Q9NZQ7 19-290): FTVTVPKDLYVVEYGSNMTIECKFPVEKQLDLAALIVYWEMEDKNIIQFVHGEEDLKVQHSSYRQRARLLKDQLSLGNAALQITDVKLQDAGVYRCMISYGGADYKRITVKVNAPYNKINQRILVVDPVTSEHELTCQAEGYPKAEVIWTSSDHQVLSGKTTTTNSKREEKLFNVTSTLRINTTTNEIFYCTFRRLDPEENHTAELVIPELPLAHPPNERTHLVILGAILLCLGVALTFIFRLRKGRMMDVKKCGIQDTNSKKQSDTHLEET
Protocol: PD-L1 Whole Blood Internalization Assay
To determine PD-L1 internalization in human whole blood, normal human blood (Biological Specialty Corp, Colmar. PA) was incubated in the presence or absence of a concentration range of test compounds and 1 ng/mL human interferon γ (R&D Systems Inc. Minn. MN) in a 96 well “2 mL Assay Block” (Corning, Corning NY) for 18-20 hours at 37 °C. Blood was then stained with PD-L1 (MIH1, eBioscience; or BD Biosciences San Jose, CA), CD14 (Life Technologies, Carlsbad, CA) for 30 minutes in the dark at room temperature. Whole Blood/red cells were lysed/fixed (lysis buffer BD Biosciences) for 5 minutes at 37 °C in the dark and then centrifuged at 1600 RPM for 5 minutes. Cells were resuspended in Stain Buffer (BD Bioscience, San Jose, CA) and transferred into 96 well round bottom plates (Coming). Cells were gated on CD14+ (BD Biosciences) and PD-L1 expression determined by mean fluorescence intensity (MFI) (BD LSRFortessa® X-20). IC50 determination was performed by fitting the curve of compound percent inhibition versus the log of the compound concentration using the GraphPad Prism 7.0 software.

[4] = biological target: T2, PD-⅟PD-L1 (recombinant human PD-L1 protein and human PD-1 protein) (Homo sapiens, UniProt Q9NZQ7); experiment: Homogeneous Time-Resolved Fluorescence (HTRF) PD-1/PD-L1 binding assay; details: 3 nM PD1, 10 nM PD-L1, 25° C., PBS pH 7.4
T2 construct: Recombinant human PD-L1 protein (19-238) with a His-tag at the C-terminus; purchased AcroBiosystems PD1-H5229 (PD-L1); PD1-H5257 (PD-1)
T2 sequence (Q9NZQ7 19-238): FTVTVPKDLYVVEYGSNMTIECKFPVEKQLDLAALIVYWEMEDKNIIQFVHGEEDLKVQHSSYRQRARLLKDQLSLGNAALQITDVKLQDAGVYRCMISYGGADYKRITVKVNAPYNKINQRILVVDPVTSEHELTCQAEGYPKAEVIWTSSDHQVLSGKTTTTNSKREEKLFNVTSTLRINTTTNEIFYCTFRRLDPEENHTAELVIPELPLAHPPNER
Protocol: Homogeneous Time-Resolved Fluorescence (HTRF) PD-⅟PD-L1 Binding Assay
The assays were conducted in a standard black 384-well polystyrene plate with a final volume of 20 uL. Inhibitors were first serially diluted in DMSO and then added to the plate wells before the addition of other reaction components. The final concentration of DMSO in the assay was 1%. The assays were carried out at 25° C. in the PBS buffer (pH 7.4) with 0.05% Tween-20 and 0.1% BSA. […] PD-L1 and PD-1 proteins were diluted in the assay buffer and 10 uL was added to the plate well. Plates were centrifuged and proteins were preincubated with inhibitors for 40 minutes. The incubation was followed by the addition of 10 uL of HTRF detection buffer supplemented with Europium cryptate-labeled anti-human IgG (PerkinElmer-AD0212) specific for Fc and anti-His antibody conjugated to SureLight®-Allophycocyanin (APC, PerkinElmer-AD0059H). […] Final concentrations in the assay were - 3 nM PD1, 10 nM PD-L1, 1 nM europium anti-human IgG and 20 nM anti-His-Allophycocyanin. IC50 determination was performed by fitting the curve of percent control activity versus the log of the inhibitor concentration using the GraphPad Prism 5.0 software.

| SMILES | IC50 [1] [nM] | IC50 [3] [nM] | IC50 [4] [nM] | EC50 [2] [nM] |
| --- | --- | --- | --- | --- |
| Cc1c(Nc2nccc3cc(CN4CC[C@H](O)C4)cnc23)cccc1-c1cccc(-c2nc3cc(CN4CC[C@H](C(=O)O)C4)cc(C#N)c3o2)c1C [Compound 3] | < 10 | < 500 | – | < 100 |
| Cc1c(Nc2nccc3cc(CN4CC[C@H](O)C4)cnc23)cccc1-c1cccc(-c2nc3cc(CN4CC[C@@H](C(=O)O)C4)cc(C#N)c3o2)c1C [Compound 4, (R)-1-((7-cyano-2-(3′-(3-(((S)-3-hydroxypyrrolidin-1-yl)methyl)-1,7-naphthyridin-8-ylamino)-2,2′-dimethylbiphenyl-3-yl)benzo[d]oxazol-5-yl)methyl)pyrrolidine-3-carboxylic acid] | < 100 | < 500 | – | < 100 |
| Cc1c(Nc2nccc3cc(CN4CC[C@@H](O)C4)cnc23)cccc1-c1cccc(-c2nc3cc(CN4CC[C@H](C(=O)O)C4)cc(C#N)c3o2)c1C [Compound 5] | < 10 | < 500 | – | < 100 |
| Cc1c(-c2nc3cc(CN4CCC(C(=O)O)CC4)cc(C#N)c3o2)cccc1-c1cccc(-c2nc3c(s2)CN(C(=O)CN(C)C)C3)c1C [Compound 6, 1-((7-cyano-2-(3′-(5-(2-(dimethylamino)acetyl)-5,6-dihydro-4H-pyrrolo [3,4-d]thiazol-2-yl)-2,2′-dimethylbiphenyl-3-yl)benzo[d]oxazol-5-yl)methyl)piperidine-4-carboxylic acid] | < 10 | < 100 | – | < 100 |
| Cc1c(Nc2nccc3cc(CN4CC[C@@](C)(O)C4)cnc23)cccc1-c1cccc(NC(=O)c2nc3c(n2C)CCN(C[C@H]2CC[C@@H](C(=O)O)CC2)C3)c1Cl [Compound 11, cis-4-((2-(2-chloro-3′-(3-(((R)-3-hydroay-3-methylpyrrolidin-1-yl)methyl)-1,7-naphthyridin-8-ylamino)-2′-methylbiphenyl-3-ylcarbamoyl)-1-methyl-6,7-dihydro-1H-imidazo[4,5-c]pyridin-5(4H)-yl)methyl)cyclohexanecarboxylic acid] | < 10 | < 100 | – | < 100 |
| CCN(C)CC(=O)N1Cc2nc(-c3cccc(-c4cccc(Nc5nccc6cc(CN7CC[C@@H](C(=O)O)C7)cnc56)c4Cl)c3C)sc2C1 [Compound 13, (R)-1-((8-((2-chloro-3′-(5-(N-ethyl-N-methylglycyl)-5,6-dihydro-4H-pyrrolo[3,4-d]thiazol-2-yl)-2′-methyl-[1,1′-biphenyl]-3-yl)amino)-1,7-naphthyridin-3-yl)methyl)pyrrolidine-3-carboxylic acid] | < 10 | < 100 | – | < 100 |

The next lines start with results.

| IC50 [1] [nM] | IC50 [3] [nM] | IC50 [4] [nM] | SMILES | EC50 [2] [nM] |
| --- | --- | --- | --- | --- |
| < 100 | – | – | Cc1c(-c2nc3c(s2)CN(C(=O)CN(C)C)C3)cccc1-c1cccc(-c2nc3c(s2)CN(C(=O)CN2CC[C@@H](O)C2)C3)c1C [Compound 14, (R)-2-(dimethylamino)-1-(2-(3′-(5-(2-(3-hydroaypyrrolidin-1-yl)acetyl)-5,6-dihydro-4H-pyrrolo[3,4-d]thiazol-2-yl)-2,2′-dimethylbipheiryl-3-yl)-4H-pyrrolo [3,4-d]thiazol-5(6H)-yl)ethanone] | < 500 |
| – | < 100 | < 10 | Cc1c(Nc2nc(C(F)F)nc3cc(CN4CC[C@@H](O)C4)cnc23)cccc1-c1cccc(-c2nc3cc(CN4CC[C@@H](C(=O)O)C4)cc(C#N)c3o2)c1C [Compound 25, (R)-1-((7-cyano-2-(3′-(2-(difluoromethyl)-7-(((R)-3-hydroxypyrrolidin-1-yl)methyl)pyrido[3,2-d]pyrimidin-4-ylamino)-2,2′-dimethylbiphenyl-3-yl)benzo [d]oxazol-5-yl)methyl)pyrrolidine-3-carboxylic acid] | < 100 |
| – | < 100 | < 10 | Cc1c(Nc2nc(C(F)F)nc3cc(CN4CC[C@@H](O)C4)cnc23)cccc1-c1cccc(-c2nc3cc(CN4CC[C@@](C)(C(=O)O)C4)cc(C#N)c3o2)c1C [Compound 26, (R)-1-((7-cyano-2-(3′-(2-(difluoromethyl)-7-(((R)-3-hydroxypyrrolidin-1-yl)methyl)pyrido[3,2-d]pyrimidin-4-ylamino)-2,2′-dimethylbipheiryl-3-yl)benzo[d]oxazol-5-yl)methyl)-3-methylpyrrolidine-3-carboxylic acid] | < 100 |
| – | < 100 | < 10 | Cc1c(Nc2nc(C(F)F)nc3cc(CN4CC[C@@](C)(O)C4)cnc23)cccc1-c1cccc(-c2nc3cc(CN4CCC(C(=O)O)CC4)cc(C#N)c3o2)c1C [Compound 27, (R)-1-((7-cyano-2-(3′-(2-(difluoromethyl)-7-((3-hydroxy-3-methylpyrrolidin-1-yl)methyl)pyrido[3,2-d]pyrimidin-4-ylamino)-2,2′-dimethylbipheiryl-3-yl)benzo[d]oxazol-5-yl)methyl)piperidine-4-caiboxylic acid] | – |
| – | < 100 | < 10 | Cc1c(Nc2nc(C(F)F)nc3cc(CN4CC[C@](C)(O)C4)cnc23)cccc1-c1cccc(-c2nc3cc(CN4CCC(C(=O)O)CC4)cc(C#N)c3o2)c1C [Compound 28, (S)-1-((7-cyano-2-(3′-(2-(difluoromethyl)-7-((3-hydroxy-3-methylpyrrolidin-1-yl)methyl)pyrido[3,2-d]pyrimidin-4-ylamino)-2,2′-dimethylbipheiryl-3-yl)benzo[d]oxazol-5-yl)methyl)pipendine-4-carboxylic acid] | – |
